{"source": "paper PMC10714399", "about": "“Open Source Antibiotics: Simple Diarylimidazoles Are Potent against Methicillin-Resistant Staphylococcus aureus” (ACS Infectious Diseases, 2023)", "target": "T1, kinases of HEK293 cell lysate (TGFBR1) (Homo sapiens, UniProt P36897)", "T1 construct": "endogenous in cells; host or cells: HEK293 cell lysate", "T1 sequence (P36897 34-503)": "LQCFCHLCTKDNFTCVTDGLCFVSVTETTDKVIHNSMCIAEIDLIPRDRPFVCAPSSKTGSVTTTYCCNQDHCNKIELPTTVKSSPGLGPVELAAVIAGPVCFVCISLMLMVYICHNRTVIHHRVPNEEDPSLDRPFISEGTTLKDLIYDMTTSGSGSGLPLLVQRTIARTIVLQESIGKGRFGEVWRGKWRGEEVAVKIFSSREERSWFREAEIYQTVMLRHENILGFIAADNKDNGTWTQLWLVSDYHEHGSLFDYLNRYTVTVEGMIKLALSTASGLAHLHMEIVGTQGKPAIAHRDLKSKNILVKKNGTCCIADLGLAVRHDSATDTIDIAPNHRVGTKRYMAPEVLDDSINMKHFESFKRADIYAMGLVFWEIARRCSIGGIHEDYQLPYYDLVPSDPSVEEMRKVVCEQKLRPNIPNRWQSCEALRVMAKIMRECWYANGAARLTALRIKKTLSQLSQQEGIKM", "experiment": "MIB-MS kinase competition assay in HEK293 cell lysate", "assay_type": "binding", "conditions": "1 μM", "experimental": "To understand the mammalian toxicity of these diarylimidazole derivatives and to aid in future compound design, we experimentally investigated the potential series’ mechanism of action (MoA). […] This affinity composition assay has proven to be a useful approach to validate kinase inhibitor selectivity. […] Whether the inhibition of TGF-β1 contributes to the cytotoxicity observed remains to be determined.\nFollowing a brief incubation with these compounds, lysates were passed over MIBs (see Supporting Information - Biology), and the captured kinases were identified and quantified by mass spectrometry. Displaced kinases are shown to the left of the center line at the designated doses.\nDifferential abundance (increase or decrease in MIB binding) was determined for kinases identified. The mass spectrometry proteomics data have been deposited to the ProteomeXchange Consortium via the PRIDE[43] partner repository with the dataset identifier PXD040208.\nEphB2 TRKB FGFR1 FGFR4 EphB2 TRKB FGFR1 FGFR4\nEphA5 EphB1 ROR2 FLT1 FmS/CSFR EphA5 EphB1 ROR2 FLT1 FmS/CSFR\nMUSK ROR1Ret Kit MUSK ROR1Ret Kit\nEphB3 DDR2 Mer EphB3 DDR2 Mer\nEphA3EphA4 DDR1 Axl Tyro/SkyFLT4 PDGFRα EphA3EphA4 DDR1 AxlTyro/SkyFLT4 PDGFRα\nIRR FLT3PDGFRβ IRR FLT3PDGFRβ\nEphA6 IGF1R HER2 EphA6 IGF1R HER2\nYes InSR Met EGFR Yes InSR Met EGFR\nBranch Color Src EphB4 Ron MLK3 Branch Color Src EphB4 Ron MLK3\nLyn EphA7 ALK TIE2 Lyn EphA7 ALK TIE2 […]"}
{"smiles": "c1ccc(-c2nc3n(c2-c2ccc4sccc4c2)CCC3)nc1", "note": "[compound 822]", "values": [{"measurement": "competition of kinases (TGFBR1) off MIBs", "value": "selectively competed off MIBs"}]}
